{"source": "paper PMC9848270", "about": "“Synthesis and biological assessment of indole derivatives containing penta-heterocycles scaffold as novel anticancer agents towards A549 and K562 cells” (Journal of Enzyme Inhibition and Medicinal Chemistry, 2023)", "key": {"K562 cells [1]": {"system": "K562 cells", "assay": "Annexin V-FITC/PI apoptosis flow cytometry, K562", "format": "cell-based, human", "conditions": "48 h, annexin V-FITC/PI", "procedure": "(§1) Annexin-V/FITC assay, after the adherent cells grew stably in the 6-well plate, each group was reacted with different concentrations of compound solutions for 48 h. Then, cells were collected by trypsinization without EDTA, rinsed twice with PBS, followed by the Annexin V-FITC/PI apoptosis detection kit (Solarbio, Bei Jing, China) according to the kit instructions, flow cytometry by BD FACSCalibur instrument (American BD Company Shanghai Co., Ltd.)."}, "[2]": {"system": "normal cell line (HEK293)", "assay": "MTT cytotoxicity, normal cell line HEK293", "format": "cell-based, human", "conditions": "Homo sapiens, HEK293; 10 μM; read-out: Inhibition rate, HEK293"}, "[3]": {"assay": "MTT cytotoxicity, normal cell line HEK293", "format": "cell-based, human", "conditions": "human"}, "[4]": {"system": "human chronic myeloid leukaemia cells (K562)", "assay": "MTT antiproliferative assay, K562", "format": "cell-based", "procedure": "(§2) A549, PC-3, HepG2 and K562 cells were purchased from the Kunming cell bank of the Chinese academy of sciences. All cell lines were cultured in DMEM or RPMI 1640 complete medium. Logarithmic growth cells were cultured in 96-well plates at a concentration of 10^4 cells per well and pre-cultured for 24 h before adding test compounds. The MTT test with 5-Fluorouracil and Gefitinib as reference compounds were used to evaluate antiproliferative activity of target compounds in four human cancer line cells. For the estimation of the inhibition concentration (IC50), the Graph Pad Prism (GraphPad Software, San Diego, CA) was used."}, "[5]": {"system": "human liver cancer cells (HepG2)", "assay": "MTT antiproliferative assay, HepG2", "format": "cell-based", "procedure": "as §2"}, "A549 cells [6]": {"system": "A549 cells", "assay": "Cell cycle analysis (PI staining, flow cytometry), A549", "format": "cell-based, human", "procedure": "(§3) A549 or K562 cells were separately seeded at 4.0 × 10^5cells/well in six-well plates and incubated for 24 h until adherent. […] After treatment, the cells were collected, and washed twice with pre-cooled PBS and then fixed with ice-cold ethanol (70%), subsequently kept 4 °C for overnight. After washing twice with PBS, cells were incubated at 37 °C with 100 µ L RNase A for 30 min. After this, cells were incubated with 400 µL PI for 30 min at 4 °C. Finally, the cell cycle distribution of compound 10 b was analysed via the BD FACSCalibur flow cytometry (American BD Corporation Shanghai Co. Ltd.)"}, "[7]": {"system": "MDM2 and p53 levels in K562", "assay": "Western blot, K562", "format": "cell-based, human", "conditions": "0.5 µM, 48 h", "procedure": "(§4) Cells were treated with different concentrations of compound for 48 h. After incubation, the cells were washed and collected. Total cell extracts were prepared with RIPA buffer, containing protease inhibitor and phosphatase inhibitor. The lysate was incubated at 0 °C for 60 min, and centrifuged at 12,000 rpm for 15 min at 4 °C to remove cellular debris. Next, the protein concentration was detected using BCA protein concentration assay kit (Beyotime, Shanghai). 20 µg of total protein was subjected to gel electrophoresis and transferred to PVDF membranes (Millipore, Burlington, MA, USA). After blocking in 5% BSA blocking buffer for 60 min, then incubated with primary antibody overnight at 4 °C, washed three times with TBST for 5 min each, followed by incubation with secondary antibody and washed. The blot was developed and exposed by chemiluminescence developer solution, which was placed on a chemiluminescence developer (Pierce, Rockford, Illinois, USA)."}, "A549 cells [8]": {"system": "A549 cells", "assay": "Wound healing migration assay, A549", "format": "cell-based, human", "conditions": "1 µM", "procedure": "After 24 h of growth, cells were placed in a 6-well plate, scratched using a 10 µL pipet tip on the cell surface. Then, gently wash twice with medium to remove the detached cells. The cells were treated with compound 10 b with 0.5 and 1.0 µM followed by 48 h incubation and photographed using an inverted microscope."}, "[9]": {"system": "EGFR, p-EGFR, Akt and p-Akt levels in A549", "assay": "Western blot, A549", "format": "cell-based, human", "conditions": "0.5 and 1 μM, 48 h", "procedure": "as §4"}, "K562 cells [10]": {"system": "K562 cells", "assay": "Cell cycle analysis (PI staining, flow cytometry), K562", "format": "cell-based, human", "procedure": "as §3"}, "A549 cells [11]": {"system": "A549 cells", "assay": "Annexin V-FITC/PI apoptosis flow cytometry, A549", "format": "cell-based, human", "conditions": "48 h, annexin V-FITC/PI", "procedure": "as §1"}, "[12]": {"system": "human prostate cancer cells (PC-3)", "assay": "MTT antiproliferative assay, PC-3", "format": "cell-based", "conditions": "for IC50: 48 h, MTT assay, read-out: In vitro cytotoxicity IC50, PC-3", "procedure": "as §2"}, "[13]": {"system": "human non-small cell lung cancer cells (A549)", "assay": "MTT antiproliferative assay, A549", "format": "cell-based", "procedure": "as §2"}, "A549 cells [14]": {"system": "A549 cells", "assay": "DAPI staining, A549", "format": "cell-based, human", "conditions": "1, 2 and 4 µM, 48 h", "procedure": "DAPI staining assay, A549 or K562 cells were separately seeded at 4.0 × 10^5 cells per well in six–well plates and incubated for 24 h until adherent. Next, the cells were treated with 10 b at 0, 1, 2 and 4 µM for 48 h. Then the cells were fixed with 4% paraformaldehyde for 15 min, and 1 ml/well of DAPI staining dye was added for 20 min in the dark. After adding the anti-fluorescence quencher, the cells can be imaged by an inverted fluorescence microscope."}, "MCF-7 cell": {"system": "MCF-7 cell", "design": "method as in PMID 33130342", "conditions": "cited from earlier work"}, "[15]": {"target": "epidermal growth factor receptor (EGFR)", "conditions": "read-out: EGFR inhibition IC50; cited from earlier work"}}, "note": "Read-outs that look alike come from different tables or passages of the source."}
{"smiles": "COc1cc(-c2nnc(SCC(=O)Nc3cc(-c4c[nH]c5ccccc45)n[nH]3)s2)cc(OC)c1OC", "note": "[Compound 10b, N-(3-(1H-indol-3-yl)-1H-pyrazol-5-yl)-2-((5-(3,4,5-trimethoxyphenyl)-1,3,4-thiadiazol-2-yl)thio)acetamide]", "values": [{"measurement": "Q2, late apoptotic cells, K562", "setting": "K562 cells [1]; 1 μM", "result": 58.2, "unit": "%"}, {"measurement": "Q2, late apoptotic cells, K562", "setting": "K562 cells [1]; 2 μM", "result": 67.8, "unit": "%"}, {"measurement": "Q2, late apoptotic cells, K562", "setting": "K562 cells [1]; 4 μM", "result": 73.2, "unit": "%"}, {"measurement": "inhibition at 10 µM", "setting": "[2]", "result": "77.9 ± 2.08", "unit": "%"}, {"measurement": "IC50 at 48 h", "setting": "[3]; HEK293 cells (normal cell line), MTT assay, 48 h, normal cell line, CC50, read-out: In vitro cytotoxicity IC50, HEK293", "result": "1120 ± 1390", "unit": "nM"}, {"measurement": "CC50", "setting": "[3]; HEK293 cells, Table 2, unit inferred, repeats Table 1", "result": "1120 ± 1390", "unit": "nM"}, {"measurement": "inhibition at 10 µM", "setting": "[4]; K562, 10 μM, read-out: Inhibition rate, K562", "result": "97.2 ± 0.526", "unit": "%"}, {"measurement": "IC50", "setting": "[4]; K562, 48 h, MTT assay, 48 h, read-out: In vitro cytotoxicity IC50, K562", "result": "13.2 ± 10", "unit": "nM"}, {"measurement": "IC50", "setting": "[4]; K562, Table 2, unit inferred, repeats Table 1, read-out: K562 (IC50, Table 2)", "result": "13.2 ± 10", "unit": "nM"}, {"measurement": "IC50", "setting": "[4]; K562, as stated in abstract and conclusion, read-out: IC50 against K562", "result": 10, "unit": "nM"}, {"measurement": "inhibition at 10 µM", "setting": "[5]; 10 μM, read-out: Inhibition rate, HepG2", "result": "92.1 ± 3.01", "unit": "%"}, {"measurement": "IC50", "setting": "[5]; MTT assay, 48 h, read-out: In vitro cytotoxicity IC50, HepG2", "result": "210 ± 70", "unit": "nM"}, {"measurement": "DNA contents of the live population, G0/G1 phase, A549", "setting": "A549 cells [6]; 4 µM, 48 h", "result": 38.60, "unit": "%"}, {"measurement": "DNA contents of the live population, G2/M phase, A549", "setting": "A549 cells [6]; 4 µM, 48 h", "result": 24.33, "unit": "%"}, {"measurement": "DNA contents of the live population, S phase, A549", "setting": "A549 cells [6]; 4 µM, 48 h", "result": 27.47, "unit": "%"}, {"measurement": "cell cycle arrest in words, A549", "setting": "A549 cells [6]; dose-dependent, 1, 2, 4 µM", "result": "arresting cells in the G2/M phase"}, {"measurement": "MDM2 expression in K562", "setting": "[7]", "result": "significantly downregulated"}, {"measurement": "p53 protein level in K562", "setting": "[7]", "result": "upregulated in a certain extent"}, {"measurement": "migration of A549 cells, in words", "setting": "A549 cells [8]", "result": "could inhibit the migration of A549 cells"}, {"measurement": "p-Akt protein level in A549", "setting": "[9]", "result": "downregulated in a dose dependently manner"}, {"measurement": "p-EGFR protein level in A549", "setting": "[9]", "result": "downregulated in a dose dependently manner"}, {"measurement": "DNA contents of the live population, G2/M phase, K562", "setting": "K562 cells [10]; 4 µM, 48 h", "result": 27.60, "unit": "%"}, {"measurement": "DNA contents of the live population, S phase, K562", "setting": "K562 cells [10]; 4 µM, 48 h", "result": 26.47, "unit": "%"}, {"measurement": "cell cycle arrest in words, K562", "setting": "K562 cells [10]; dose-dependent, 1, 2, 4 µM", "result": "arresting cells in the G2/M phase"}, {"measurement": "Q2, late apoptotic cells, A549", "setting": "A549 cells [11]; 1 μM", "result": 8.36, "unit": "%"}, {"measurement": "Q2, late apoptotic cells, A549", "setting": "A549 cells [11]; 2 μM", "result": 16.0, "unit": "%"}, {"measurement": "Q2, late apoptotic cells, A549", "setting": "A549 cells [11]; 4 μM", "result": 35.7, "unit": "%"}, {"measurement": "IC50", "setting": "[12]; Homo sapiens", "result": 850, "unit": "nM"}, {"measurement": "inhibition at 10 µM", "setting": "[12]; Homo sapiens, 10 μM, read-out: Inhibition rate, PC-3", "result": "88.4 ± 5.99", "unit": "%"}, {"measurement": "IC50", "setting": "[12]", "result": "853 ± 720", "unit": "nM"}, {"measurement": "inhibition at 10 µM", "setting": "[13]; A549, 10 μM, read-out: Inhibition rate, A549", "result": "96.2 ± 0.737", "unit": "%"}, {"measurement": "IC50", "setting": "[13]; A549, 48 h, MTT assay, 48 h, read-out: In vitro cytotoxicity IC50, A549", "result": 120, "unit": "nM"}, {"measurement": "IC50", "setting": "[13]; A549, Table 2, unit inferred, repeats Table 1, read-out: A549 (IC50, Table 2)", "result": "124 ± 50", "unit": "nM"}, {"measurement": "IC50", "setting": "[13]; A549, as stated in abstract and conclusion, read-out: IC50 against A549", "result": 12, "unit": "nM"}, {"measurement": "apoptosis by DAPI staining, in words", "setting": "A549 cells [14]", "result": "induced apoptosis"}]}
{"smiles": "O=C(Nc1nnc(SCc2ccc(Cl)c(Cl)c2)s1)c1cn(C2CC2)c2cc(N3CCNCC3)c(F)cc2c1=O", "note": "[Compound B]", "values": [{"measurement": "apoptosis in MCF-7 cell, in words", "setting": "MCF-7 cell", "result": "inducing apoptosis significantly"}]}
{"smiles": "C=CCSc1nnc(-c2cc3ccccc3[nH]2)n1N=Cc1c[nH]c2ccccc12", "note": "[Compound C]", "values": [{"measurement": "IC50", "setting": "[15]", "result": 19.8, "unit": "nM"}]}
